The results in this text go back to patent publication US20260022143A1, “Cyclic Peptide Inhibitors of IL-23” (JANSSEN PHARMACEUTICA NV, priority 2022, published 2026).

Data set [1] is described as follows: Exposed Polar Surface Area (EPSA). The settings on record: SFC on Chirex 3014 column; sample 1 mM DMSO stock; read-out: EPSA. It counts as physicochemical. Put shortly: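 EPSA, in Å^2, is read from SFC retention time through a linear relationship established with eight calibration standards. Separation uses a Chirex 3014 stationary phase, 35 °C, 14 MPa back pressure, and a 5–60% methanol/ammonium formate modifier gradient in CO2.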

Data set [2] concerns the target T1, IL-23R (Homo sapiens, UniProt Q5VWK5).
T1 construct: host or cells: HEK293
T1 sequence (Q5VWK5 24-629): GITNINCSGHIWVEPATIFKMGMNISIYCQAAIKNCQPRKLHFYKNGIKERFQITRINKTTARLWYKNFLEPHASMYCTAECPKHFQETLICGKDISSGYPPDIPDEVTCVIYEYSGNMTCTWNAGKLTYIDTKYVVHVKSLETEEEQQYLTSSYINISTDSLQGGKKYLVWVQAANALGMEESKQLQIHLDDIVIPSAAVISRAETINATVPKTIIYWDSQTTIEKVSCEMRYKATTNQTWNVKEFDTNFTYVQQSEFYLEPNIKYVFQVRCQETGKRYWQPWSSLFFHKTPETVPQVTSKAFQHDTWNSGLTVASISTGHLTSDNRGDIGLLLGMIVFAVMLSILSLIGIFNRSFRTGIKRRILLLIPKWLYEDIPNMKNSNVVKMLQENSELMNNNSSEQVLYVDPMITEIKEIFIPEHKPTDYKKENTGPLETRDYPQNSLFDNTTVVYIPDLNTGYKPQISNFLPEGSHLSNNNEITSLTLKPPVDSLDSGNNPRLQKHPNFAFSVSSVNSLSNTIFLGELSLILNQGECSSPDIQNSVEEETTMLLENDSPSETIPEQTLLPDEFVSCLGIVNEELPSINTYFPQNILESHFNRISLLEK
In words: IL23R Reporter Assay. The class given is cell-based. The settings on record: HEK293 cells containing IL-23R, IL-12RP1 and STAT-inducible firefly luciferase reporter; 10 ng/mL IL-23 (EC90); 5 h at 37° C.; read-out: IL23R Reporter Assay. Background: A reporter such as luciferase makes a cellular process visible.

SMILES strings stand for the structures. Starred links: 1 amine or outer side, 2 acyl side, 3 side chain; linkers in the order of their positions; H or OH if unused. Positions of bridges follow the written chain, without caps; N, C: chain ends. Non-standard residues stand in square brackets, D forms with d. Residues, ends and D or L forms follow the SMILES beside them. *: point of attachment. Me3N+(CH2)2O(CH2)2O(CH2)2CO = C[N+](C)(C)CCOCCOCCC(=O)*; Trp(7-Me) = Cc1cccc2c(C[C@H](N)C(=O)O)c[nH]c12; Abu(4-yl) = O=C([C@H](CC[*:3])N[*:1])[*:2]; Hexanoyl(6-NMe3+) = C[N+](C)(C)CCCCCC(=O)*; dLys(Me3) = C[N+](C)(C)CCCC[C@@H](N)C(=O)O; Lys(Me3) = C[N+](C)(C)CCCC[C@H](N)C(=O)O; 2Nal = N[C@@H](Cc1ccc2ccccc2c1)C(=O)O; AEF = NCCOc1ccc(C[C@H](N)C(=O)O)cc1; X26 = C[N+](C)(C)CCCCc1cn(CC*)nn1; 3Pal = N[C@@H](Cc1cccnc1)C(=O)O; Lys(Me) = CNCCCC[C@H](N)C(=O)O; X53 = C[N+]1(CCOCCOCC*)CCOCC1; Pen = CC(C)(S)[C@H](N)C(=O)O; αMeC = C[C@](N)(CS)C(=O)O; X31 = N=C(N)NCCOCCC(=O)*; Thp = NC1(C(=O)O)CCOCC1; X3 = C[N+](C)(C)CCCCC*; Sar = CNCC(=O)O

As for `CC(=O)N(C)CCCC[C@@H]1NC(=O)[C@H](Cc2c[nH]c3ccccc23)NC(=O)[C@H]([C@@H](C)O)NC(=O)[C@H](CC(=O)N(C)C)NC(=O)[C@@H](NC(=O)CCOCCOCC[N+](C)(C)C)C(C)(C)SSC(C)(C)[C@@H](C(=O)N[C@@H](Cc2ccc(OCCCCC[N+](C)(C)C)cc2)C(=O)N[C@@H](Cc2ccc3ccccc3c2)C(=O)NC2(C(=O)N[C@@H](CCCCN(C)C(C)=O)C(=O)N[C@@H](CC(N)=O)C(=O)N[C@@H](Cc3cccnc3)C(=O)N(C)CC(=O)N(C)C)CCOCC2)NC1=O` [compound 507, cPEG3aCO-Pen(3)-N(N(Me)2)-T-W-K(NMeAc)-Pen(3)-TMAPF-2Nal-THP-K(NMeAc)-N-3Pya-Sar-CONMe2] ({Me3N+(CH2)2O(CH2)2O(CH2)2CO}-[Pen]D(NMe2)TW[Lys(Me)](Ac)[Pen]Y(X3)[2Nal][Thp][Lys(Me)](Ac)N[3Pal][Sar]-NMe2; disulfide 1-6), the EPSA in data set [1] stood at 164 A^2. Moreover, the IC50 in data set [2] came to 3 nM.

As for `CC(=O)NCCCC[C@@H]1NC(=O)[C@H](Cc2c[nH]c3c(C)cccc23)NC(=O)[C@H]([C@@H](C)O)NC(=O)[C@H](CC(N)=O)NC(=O)[C@@H](NC(C)=O)C(C)(C)SSC(C)(C)[C@@H](C(=O)N[C@@H](Cc2ccc(OCCn3cc(CCCC[N+](C)(C)C)nn3)cc2)C(=O)N[C@@H](Cc2ccc3ccccc3c2)C(=O)NC2(C(=O)N[C@@H](CCCCNC(C)=O)C(=O)N[C@@H](CC(N)=O)C(=O)N[C@@H](Cc3cccnc3)C(=O)N(C)CC(N)=O)CCOCC2)NC1=O` [compound 258] (Ac-[Pen]NT[Trp(7-Me)]K(Ac)[Pen]Y(X26)[2Nal][Thp]K(Ac)N[3Pal][Sar]-NH2; disulfide 1-6 (inferred)), the EPSA in data set [1] came to 151 A^2. The IC50 in data set [2] was 6.9 nM.

In the case of `CC(=O)NCCCC[C@@H]1NC(=O)[C@H](Cc2c[nH]c3ccccc23)NC(=O)[C@H]([C@@H](C)O)NC(=O)[C@H](CC(N)=O)NC(=O)[C@@H](NC(=O)[C@H](CCCC[N+](C)(C)C)NC(C)=O)CCSC[C@@](C)(C(=O)N[C@@H](Cc2ccc(OCCCCC[N+](C)(C)C)cc2)C(=O)N[C@@H](Cc2ccc3ccccc3c2)C(=O)NC2(C(=O)N[C@@H](CCCCNC(C)=O)C(=O)N[C@@H](CC(N)=O)C(=O)N[C@@H](Cc3cccnc3)C(=O)N(C)CC(N)=O)CCOCC2)NC1=O` [compound 517, MeCO-k(Me)3-Abu(1)-N-T-W-K(Ac)-aMeC(1)-TMAPF-2Nal-THP-K(Ac)-N-3Pya-Sar-CONH2] (Ac-[Lys(Me3)][Abu(4-yl)]NTWK(Ac)[αMeC]Y(X3)[2Nal][Thp]K(Ac)N[3Pal][Sar]-NH2; thioether 2-7), the EPSA in data set [1] worked out at 241 A^2. For the same compound, the IC50 in data set [2] is 51 nM.

As for `CC(=O)N(C)CCCC[C@H](NC(=O)C1(NC(=O)[C@H](Cc2ccc3ccccc3c2)NC(=O)[C@H](Cc2ccc(OCCCCC[N+](C)(C)C)cc2)NC(=O)[C@H]2NC(=O)[C@H](C)NC(=O)[C@H](Cc3c[nH]c4c(C)cccc34)NC(=O)[C@H]([C@@H](C)O)NC(=O)[C@H](CC(=O)N(C)C)NC(=O)[C@@H](NC(=O)CCOCCOCC[N+](C)(C)C)C(C)(C)SSC2(C)C)CCOCC1)C(=O)N[C@@H](CC(N)=O)C(=O)N[C@@H](Cc1cccnc1)C(=O)N(C)CC(=O)N(C)C` [compound 492, cPEG3aCO-Pen(3)-N(N(Me)2)-T-7MeW-A-Pen(3)-TMAPF-2Nal-THP-K(NMeAc)-N-3Pya-Sar-CON(Me)2] ({Me3N+(CH2)2O(CH2)2O(CH2)2CO}-[Pen]D(NMe2)T[Trp(7-Me)]A[Pen]Y(X3)[2Nal][Thp][Lys(Me)](Ac)N[3Pal][Sar]-NMe2; disulfide 1-6), in data set [1], the EPSA was 165 A^2. The IC50 in data set [2] is 6.4 nM.

Take `CC(=O)N(C)CCCC[C@@H]1NC(=O)[C@H](Cc2c[nH]c3c(C)cccc23)NC(=O)[C@H]([C@@H](C)O)NC(=O)[C@H](CC(=O)N(C)C)NC(=O)[C@@H](NC(=O)CCOCCNC(=N)N)C(C)(C)SSC(C)(C)[C@@H](C(=O)N[C@@H](Cc2ccc(OCCCCC[N+](C)(C)C)cc2)C(=O)N[C@@H](Cc2ccc3ccccc3c2)C(=O)NC2(C(=O)N[C@@H](CCCCN(C)C(C)=O)C(=O)N[C@@H](CC(N)=O)C(=O)N[C@@H](Cc3cccnc3)C(=O)N(C)CC(=O)N(C)C)CCOCC2)NC1=O` [compound 390, cPEG2gCO-Pen(3)-N(N(Me)2)-T-7MeW-K(NMeAc)-Pen(3)-TMAPF-2Nal-THP-K(NMeAc)-N-3Pya-Sar-CON(Me)2] (X31-[Pen]D(NMe2)T[Trp(7-Me)][Lys(Me)](Ac)[Pen]Y(X3)[2Nal][Thp][Lys(Me)](Ac)N[3Pal][Sar]-NMe2; disulfide 1-6): the EPSA in data set [1] came out at 148 A^2. In data set [2], the IC50 worked out at 1.2 nM.

With `CC(=O)N(C)CCCC[C@@H]1NC(=O)[C@H](Cc2c[nH]c3c(C)cccc23)NC(=O)[C@H]([C@@H](C)O)NC(=O)[C@H](CC(=O)N(C)C)NC(=O)[C@@H](NC(=O)CCOCCOCC[N+](C)(C)C)C(C)(C)SSC(C)(C)[C@@H](C(=O)N[C@@H](Cc2ccc(OCCN)cc2)C(=O)N[C@@H](Cc2ccc3ccccc3c2)C(=O)NC2(C(=O)N[C@@H](CCCCN(C)C(C)=O)C(=O)N[C@@H](CC(N)=O)C(=O)N[C@@H](Cc3cccnc3)C(=O)N(C)CC(=O)N(C)C)CCOCC2)NC1=O` [compound 320, cPEG3aCO-Pen(3)-N(N(Me)2)-T-7MeW-K(NMeAc)-Pen(3)-AEF-2Nal-THP-K(NMeAc)-N-3Pya-Sar-CON(Me)2] ({Me3N+(CH2)2O(CH2)2O(CH2)2CO}-[Pen]D(NMe2)T[Trp(7-Me)][Lys(Me)](Ac)[Pen][AEF][2Nal][Thp][Lys(Me)](Ac)N[3Pal][Sar]-NMe2; disulfide 1-6), the EPSA in data set [1] is 162 A^2. In addition, the IC50 in data set [2] was 0.95 nM.

Consider `CC(=O)NCCCC[C@@H]1NC(=O)[C@H](Cc2c[nH]c3ccccc23)NC(=O)[C@H]([C@@H](C)O)NC(=O)[C@H](CC(N)=O)NC(=O)[C@@H](NC(=O)[C@H](CCCNC(=N)N)NC(=O)CCOCCOCC[N+](C)(C)C)CCSC[C@@](C)(C(=O)N[C@@H](Cc2ccc(OCCCCC[N+](C)(C)C)cc2)C(=O)N[C@@H](Cc2ccc3ccccc3c2)C(=O)NC2(C(=O)N[C@@H](CCC(=O)O)C(=O)N[C@@H](CC(N)=O)C(=O)N[C@@H](Cc3cccnc3)C(=O)N(C)CC(N)=O)CCOCC2)NC1=O` [compound 516, cPEG3aCO-r-Abu(1)-N-T-W-K(Ac)-aMeC(1)-TMAPF-2Nal-THP-E-N-3Pya-Sar-CONH2] ({Me3N+(CH2)2O(CH2)2O(CH2)2CO}-R[Abu(4-yl)]NTWK(Ac)[αMeC]Y(X3)[2Nal][Thp]EN[3Pal][Sar]-NH2; thioether 2-7), for which the EPSA in data set [1] worked out at 237 A^2. The IC50 in data set [2] is 50 nM.

For `CC(=O)NCCCC[C@@H]1NC(=O)[C@H](Cc2c[nH]c3ccccc23)NC(=O)[C@H]([C@@H](C)O)NC(=O)[C@H](CC(N)=O)NC(=O)[C@@H](NC(=O)[C@@H](CCCC[N+](C)(C)C)NC(C)=O)CCSC[C@@](C)(C(=O)N[C@@H](Cc2ccc(OCCCCC[N+](C)(C)C)cc2)C(=O)N[C@@H](Cc2ccc3ccccc3c2)C(=O)NC2(C(=O)N[C@@H](CCC(=O)O)C(=O)N[C@@H](CC(N)=O)C(=O)N[C@@H](Cc3cccnc3)C(=O)N(C)CC(N)=O)CCOCC2)NC1=O` [compound 567, MeCO-k(Me)3-Abu(1)-N-T-W-K(Ac)-aMeC(1)-TMAPF-2Nal-THP-E-N-3Pya-Sar-CONH2] (Ac-[dLys(Me3)][Abu(4-yl)]NTWK(Ac)[αMeC]Y(X3)[2Nal][Thp]EN[3Pal][Sar]-NH2; thioether 2-7), in data set [1], the EPSA is 172 A^2. Moreover, the IC50 in data set [2] amounted to 3.1 nM.

Consider `CC(=O)NCCCC[C@@H]1NC(=O)[C@H](Cc2c[nH]c3c(C)cccc23)NC(=O)[C@H]([C@@H](C)O)NC(=O)[C@H](CC(N)=O)NC(=O)[C@@H](NC(=O)[C@@H](CCCCNC(=O)CCCCC[N+](C)(C)C)NC(C)=O)C(C)(C)SSC(C)(C)[C@@H](C(=O)N[C@@H](Cc2ccc(OCCN)cc2)C(=O)N[C@@H](Cc2ccc3ccccc3c2)C(=O)NC2(C(=O)N[C@@H](CCCCNC(C)=O)C(=O)N[C@@H](CC(N)=O)C(=O)N[C@@H](Cc3cccnc3)C(=O)N(C)CC(N)=O)CCOCC2)NC1=O` [compound 87] (Ac-[dK](Hexanoyl(6-NMe3+))[Pen]NT[Trp(7-Me)]K(Ac)[Pen][AEF][2Nal][Thp]K(Ac)N[3Pal][Sar]-NH2; disulfide 2-7 (inferred)), for which, in data set [1], the EPSA stood at 159 A^2. Further, the IC50 in data set [2] worked out at 4.2 nM.

As to `CC(=O)NCCCC[C@@H]1NC(=O)[C@H](Cc2c[nH]c3c(C)cccc23)NC(=O)[C@H]([C@@H](C)O)NC(=O)[C@H](CC(N)=O)NC(=O)[C@@H](NC(C)=O)C(C)(C)SSC(C)(C)[C@@H](C(=O)N[C@@H](Cc2ccc(OCCOCCOCC[N+]3(C)CCOCC3)cc2)C(=O)N[C@@H](Cc2ccc3ccccc3c2)C(=O)NC2(C(=O)N[C@@H](CCCCNC(C)=O)C(=O)N[C@@H](CC(N)=O)C(=O)N[C@@H](Cc3cccnc3)C(=O)N(C)CC(N)=O)CCOCC2)NC1=O` [compound 455] (Ac-[Pen]NT[Trp(7-Me)]K(Ac)[Pen]Y(X53)[2Nal][Thp]K(Ac)N[3Pal][Sar]-NH2; disulfide 1-6), the EPSA in data set [1] was determined as 158 A^2. Also, in data set [2], the IC50 is 2.1 nM.
